Reference: patent publication US10729710B2, “Catecholamine prodrugs for use in the treatment of Parkinson's disease” (H. Lundbeck A/S, priority 2017, dated 2020)
Structures can show the parent of a compound that is named as a salt.

How the values were obtained:
human D1 receptor = human D1 receptor (Homo sapiens (Human), UniProt P21728); assay: Dopamine D1 receptor agonism, HTRF cAMP assay; assay type: cell-based; conditions: for Emax: normalized to 30 uM dopamine = 100%
Description: Dopamine D1 receptor agonism was measured using a HTRF cAMP from CisBio using the protocol developed by HD Biosciences (China). Briefly, the assay is a homogeneous time resolved-fluorescence resonance energy transfer (HTRF) assay that measures production of cAMP by cells in a competitive immunoassay between native cAMP produced by cells and cAMP-labeled with XL-665. A cryptate-labeled anti-cAMP antibody visualizes the tracer. The assay was performed in accordance with instructions from manufacturer.
Test compounds were added to wells of microplates (384 format). HEK-293 cells expressing the human D1 receptor were plated at 1000 cells/well and incubated 30 min at room temperature. cAMP-d2 tracer was added to wells and followed by addition of Anti-cAMP antibody-cryptate preparation and incubated for 1 h at room temperature in dark. HTRF cAMP was measured by excitation of the donor with 337 nm laser (the “TRF light unit”) and subsequent (delay time 100 microseconds) measurement of cryptate and d2 emission at 615 nm and 665 nm over a time window of 200 microseconds with a 2000 microseconds time window between repeats/100 flashes). HRTF measurements were performed on an Envision microplate reader (PerkinElmer). The HTRF signal was calculated as the emission-ratio at 665 nm over 615 nm. The HTRF ratio readout for test compounds was normalized to 0% and 100% stimulation using control wells with DMSO-solvent or 30 uM dopamine. Test compound potency (EC50) was estimated by nonlinear regression using the sigmoidal dose-response (variable slope) using Xlfit 4 (IDBS, Guildford, Surrey, UK, model 205). y=(A+((B−A)/(1+((C/x)^D)))) where y is the normalized HTRF ratio measurement for a given concentration of test compound, x is the concentration of test compound, A is the estimated efficacy at infinite compound dilution, and B is the maximal efficacy. C is the EC50 value and D is the Hill slope coefficient. EC50 estimates were obtained from an independent experiment and the logarithmic average was calculated. Dopamine D2 Receptor Agonism

male CD rats = assay: Rat locomotor activity (hyperactivity) assay, open field; assay type: in vivo
Description: In total, 206 male CD rats (Charles River, Germany) weighing 200-250 grams (165-190 grams upon arrival) were used in the study. Animals were housed at a standard temperature (22±1° C.) and in a light-controlled environment (lights on from 7 am to […]) with ad libitum access to food and water. The experiment described below was performed in accordance with the standard operating procedures of Charles River Discovery Research Services Finland Ltd. and in accordance with the national Animal Experiment Board of Finland (Eläinkoelautakunta, ELLA) authority on animal testing.
The test device is a square Plexiglass-arena (measuring 40×40×40 cm), in which the movement paths of the rats are recorded by an activity monitor (Med. Associates Inc.). Before the test period is initiated, rats are habituated to their test cage for 60 minutes. Upon completion of habituation, animals were treated with either compound or vehicle and placed back into the open field apparatus. The main test parameter measured is ambulatory distance (recorded in 5 minute segments). Overall time of measurement after receiving initial treatment was 360 minutes. Total follow up period in the study was 420 min, including 60 min of habituation.

[1] = Conversion to compound (I) in fresh rat blood; assay type: in vitro ADME; conditions: fresh blood 37° C., 1 μg/mL, 0-60 minutes, FIG. 8a
Description: Conversion of (Id-ia), (Id-ib), (Id-iia) and (Id-iib) in human blood (average of 3 donors) and rat blood (average of 45 donors) to (I) was shown in fresh blood at 37° C. spiked with 1 μg/mL of (Id-ia), (Id-ib), (Id-iia) and (Id-iib) separately, (I) was measured at 0, 5, 15, 30 and 60 minutes in isolated plasma. Analysis method and Instrumentation as described in Examples 4 and 5 below in the section “Instrumentation used for analysis of compound (I) from dosing of compounds (Ic), (Id-ia), (Id-ib), (Id-iia), (Id-iib), (Id-iab) and (Id-iiab).”

Sequence of human D1 receptor (P21728 whole entry): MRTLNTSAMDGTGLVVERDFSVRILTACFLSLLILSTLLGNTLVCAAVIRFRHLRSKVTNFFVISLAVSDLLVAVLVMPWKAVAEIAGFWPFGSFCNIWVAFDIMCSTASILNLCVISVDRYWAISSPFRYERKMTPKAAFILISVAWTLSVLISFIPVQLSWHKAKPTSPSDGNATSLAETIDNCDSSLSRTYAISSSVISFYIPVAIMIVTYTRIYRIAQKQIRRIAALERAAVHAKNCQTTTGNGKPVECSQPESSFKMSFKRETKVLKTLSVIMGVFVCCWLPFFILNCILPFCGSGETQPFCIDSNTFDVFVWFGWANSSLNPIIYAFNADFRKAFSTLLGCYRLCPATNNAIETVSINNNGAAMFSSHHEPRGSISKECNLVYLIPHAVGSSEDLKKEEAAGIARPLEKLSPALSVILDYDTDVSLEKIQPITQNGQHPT

CCCN1CCC[C@@H]2Cc3c(ccc(O)c3O[C@@H]3O[C@H](C(=O)O)[C@@H](O)[C@H](O)[C@H]3O)C[C@H]21 [(Id-ia), (2S,3S,4S,5R,6S)-3,4,5-trihydroxy-6-(((4aR,10aR)-7-hydroxy-1-propyl-1,2,3,4,4a,5,10,10a-octahydrobenzo[g]quinolin-6-yl)oxy)tetrahydro-2H-pyran-2-carboxylic acid]
in vitro dopaminergic activity (in words) (human D1 receptor; D1 and D2, example 2): no in vitro dopaminergic activity | Emax (human D1 receptor): 98% | relationship between behavioral effect and plasma concentrations (male CD rats; (Id-ia) 100 μg/kg p.o. (FIG. 5), apomorphine 3 mg/kg s.c. (FIG. 6)): correlate with the plasma concentrations of compound (I) | start of locomotor activity effect post-administration (male CD rats; (Id-ia) 10 to 300 μg/kg p.o., apomorphine 3 mg/kg s.c., pramipexole 0.3 mg/kg s.c.): ~2 h | total distance travelled vs vehicle (male CD rats; FIG. 4, (Id-ia) p.o., apomorphine 3 mg/kg s.c., pramipexole 0.3 mg/kg s.c.): significantly increased activity | time until locomotor effect is gone (male CD rats; apomorphine: post administration, pramipexole: after appearance of effect, (Id-ia): recording ended at 415-minute time point): lasting until the end of recording | conversion to compound (I) in rat blood [1]: time dependent conversion to compound (I)

CCCN1CCC[C@@H]2Cc3c(ccc(O)c3OS(=O)(=O)O)C[C@H]21 [(Id-iia), (4aR,10aR)-7-hydroxy-1-propyl-1,2,3,4,4a,5,10,10a-octahydrobenzo[g]quinolin-6-yl hydrogen sulfate]
EC50 (human D1 receptor; HEK-293 cells expressing human D1 receptor, cAMP): > 30 µM | Emax (human D1 receptor): 49% | conversion to compound (I) in rat blood [1]: time dependent conversion to compound (I)
